Results as given in patent US8952024B2, “Herbicidal pyrimidone derivatives” (E I du Pont de Nemours and Company, priority 2009, dated 2015).

What was measured:
Type in all cases: in vivo
[1] = test system: wheat (Triticum aestivum); assay: Test A pre-/postemergence plant response
Outline: (§1)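 Injury was scored visually after roughly ten days against untreated controls, 0 = no effect, 100 = complete control. Test chemicals in a surfactant-containing non-phytotoxic solvent were sprayed either onto soil preemergence or onto one- to two-leaf, 2–10 cm plants postemergence.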

[2] = test system: large crabgrass (Digitaria sanguinalis); assay: Test A pre-/postemergence plant response; details: for Crabgrass, Large plant response rating: visual injury, 0 to 100 scale (0 no effect, 100 complete control), approx. ten days
Outline: as §1

[3] = test system: barnyardgrass (Echinochloa crus-galli); assay: Test A pre-/postemergence plant response; details: for Barnyardgrass plant response rating: visual injury, 0 to 100 scale (0 no effect, 100 complete control), approx. ten days
Outline: as §1

[4] = test system: velvetleaf (Abutilon theophrasti); assay: Test A pre-/postemergence plant response
Outline: as §1

[5] = test system: giant foxtail (Setaria faberii); assay: Test A pre-/postemergence plant response
Outline: as §1

corn (Zea mays) = assay: Test A pre-/postemergence plant response; details: for Corn plant response rating: visual injury, 0 to 100 scale (0 no effect, 100 complete control), approx. ten days
Outline: as §1

[6] = test system: morningglory (Ipomoea spp.); assay: Test A pre-/postemergence plant response
Outline: as §1

[7] = test system: pigweed (Amaranthus retroflexus); assay: Test A pre-/postemergence plant response
Outline: as §1

[8] = test system: ducksalad (Heteranthera limosa); assay: Test B flooded paddy test; details: for Plant response rating, Flood, Ducksalad: 250 g ai/ha, flooded paddy test, visual rating on 0 to 100 scale (0 no effect, 100 complete control) after 13 to 15 days; for Plant response rating, Ducksalad: Flood (flooded paddy test), 13 to 15 days; for Ducksalad plant response rating: Flood, 31 g ai/ha, scale 0 to 100 (0 no effect, 100 complete control)
Outline: (§2)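 2-leaf seedlings; pots flooded 3 cm over soil at treatment; cpd dosed into floodwater, depth kept constant. Greenhouse 13–15 d. Visual rating vs untreated controls, 0 = no effect, 100 = complete control.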

[9] = test system: barnyardgrass (Echinochloa crus-galli); assay: Test B flooded paddy test; details: for Plant response rating, Flood, Barnyardgrass: 250 g ai/ha, flooded paddy test, visual rating on 0 to 100 scale (0 no effect, 100 complete control) after 13 to 15 days; for Plant response rating, Barnyardgrass: Flood (flooded paddy test), 13 to 15 days; for Barnyardgrass plant response rating: Flood, 31 g ai/ha, scale 0 to 100 (0 no effect, 100 complete control)
Outline: as §2

[10] = test system: umbrella sedge (Cyperus difformis); assay: Test B flooded paddy test; details: for Plant response rating, Flood, Sedge, Umbrella: 250 g ai/ha, flooded paddy test, visual rating on 0 to 100 scale (0 no effect, 100 complete control) after 13 to 15 days; for Plant response rating, Sedge, Umbrella: Flood (flooded paddy test), 13 to 15 days; for Sedge, Umbrella plant response rating: Flood, 31 g ai/ha, scale 0 to 100 (0 no effect, 100 complete control)
Outline: as §2

rice (Oryza sativa) = assay: Test B flooded paddy test; details: for Plant response rating, Flood, Rice: 250 g ai/ha, flooded paddy test, visual rating on 0 to 100 scale (0 no effect, 100 complete control) after 13 to 15 days; for Plant response rating, Rice: Flood (flooded paddy test), 13 to 15 days; for Rice plant response rating: Flood, 31 g ai/ha, scale 0 to 100 (0 no effect, 100 complete control)
Outline: as §2

[11] = Postemergence, 125 g ai/ha, 0 to 100 scale where 0 is no effect and 100 is complete control
[12] = Postemergence, 500 g ai/ha, visual injury, 0 to 100 scale (0 no effect, 100 complete control), approx. ten days
[13] = Preemergence, 125 g ai/ha, 0 to 100 scale, 0 = no effect, 100 = complete control
[14] = Preemergence, 500 g ai/ha, 0 to 100 scale, 0 = no effect, 100 = complete control
[15] = 62 g ai/ha, scale of 0 to 100 where 0 is no effect and 100 is complete control
[16] = 125 g ai/ha, scale 0 to 100, 0 is no effect, 100 is complete control
[17] = Postemergence, 125 g ai/ha, visual injury, 0 to 100 scale (0 no effect, 100 complete control), approx. ten days
[18] = Preemergence, 125 g ai/ha, 0 to 100 scale where 0 is no effect and 100 is complete control, approximately ten days

CCCn1c(-c2ccco2)ncc(C(=O)C2=C(O)C3CCC(C3)C2=O)c1=O (stereo not drawn) [Compound 230]
Plant response rating, Wheat [1, 11]: 0 | Wheat plant response rating [1, 12]: 0 | Plant response rating, Wheat [1, 13]: 0 | Plant response rating, Wheat [1, 14]: 0 | Plant response rating, Crabgrass, Large [2, 11]: 80 | Crabgrass, Large plant response rating ([2]; Postemergence, 500 g ai/ha): 90 | Plant response rating, Crabgrass, Large [2, 13]: 30 | Plant response rating, Crabgrass, Large [2, 14]: 90 | Plant response rating, Barnyardgrass [3, 11]: 70 | Barnyardgrass plant response rating ([3]; Postemergence, 500 g ai/ha): 90 | Plant response rating, Barnyardgrass [3, 13]: 10 | Plant response rating, Barnyardgrass [3, 14]: 80 | Plant response rating, Velvetleaf [4, 11]: 100 | Velvetleaf plant response rating [4, 12]: 100 | Plant response rating, Velvetleaf [4, 13]: 60 | Plant response rating, Velvetleaf [4, 14]: 80 | Plant response rating, Foxtail, Giant [5, 11]: 30 | Foxtail, Giant plant response rating [5, 12]: 50 | Plant response rating, Foxtail, Giant [5, 13]: 40 | Plant response rating, Foxtail, Giant [5, 14]: 50 | Plant response rating, Corn (corn (Zea mays); [11]): 0 | Corn plant response rating (corn (Zea mays); Postemergence, 500 g ai/ha): 20 | Plant response rating, Corn (corn (Zea mays); [13]): 0 | Plant response rating, Corn (corn (Zea mays); [14]): 0 | Plant response rating, Morningglory [6, 11]: 70 | Morningglory plant response rating [6, 12]: 90 | Plant response rating, Morningglory [6, 13]: 0 | Plant response rating, Morningglory [6, 14]: 20 | Plant response rating, Pigweed [7, 11]: 80 | Pigweed plant response rating [7, 12]: 90 | Plant response rating, Pigweed [7, 14]: 80 | Plant response rating, Flood, Ducksalad [8]: 0 | Plant response rating, Ducksalad [8, 15]: 0 | Plant response rating, Ducksalad [8, 16]: 0 | Ducksalad plant response rating [8]: 0 | Plant response rating, Flood, Barnyardgrass [9]: 40 | Plant response rating, Barnyardgrass [9, 15]: 0 | Plant response rating, Barnyardgrass [9, 16]: 20 | Barnyardgrass plant response rating [9]: 0 | Plant response rating, Flood, Sedge, Umbrella [10]: 75 | Plant response rating, Sedge, Umbrella [10, 15]: 30 | Plant response rating, Sedge, Umbrella [10, 16]: 40 | Sedge, Umbrella plant response rating [10]: 0 | Plant response rating, Flood, Rice (rice (Oryza sativa)): 45 | Plant response rating, Rice (rice (Oryza sativa); [15]): 20 | Plant response rating, Rice (rice (Oryza sativa); [16]): 30 | Rice plant response rating (rice (Oryza sativa)): 0

CCCCn1c(-c2cccc(C)c2)ncc(C(=O)C2=C(O)C3CCC(C3)C2=O)c1=O (stereo not drawn) [Compound 232]
Plant response rating, Wheat [1, 11]: 20 | Wheat plant response rating [1, 12]: 50 | Plant response rating, Wheat [1, 13]: 0 | Plant response rating, Wheat [1, 14]: 30 | Plant response rating, Crabgrass, Large [2, 11]: 20 | Crabgrass, Large plant response rating ([2]; Postemergence, 500 g ai/ha): 60 | Plant response rating, Crabgrass, Large [2, 13]: 10 | Plant response rating, Crabgrass, Large [2, 14]: 40 | Plant response rating, Barnyardgrass [3, 11]: 60 | Barnyardgrass plant response rating ([3]; Postemergence, 500 g ai/ha): 90 | Plant response rating, Barnyardgrass [3, 13]: 0 | Plant response rating, Barnyardgrass [3, 14]: 50 | Plant response rating, Velvetleaf [4, 11]: 70 | Velvetleaf plant response rating [4, 12]: 80 | Plant response rating, Velvetleaf [4, 13]: 0 | Plant response rating, Velvetleaf [4, 14]: 60 | Plant response rating, Foxtail, Giant [5, 11]: 60 | Foxtail, Giant plant response rating [5, 12]: 90 | Plant response rating, Foxtail, Giant [5, 13]: 0 | Plant response rating, Foxtail, Giant [5, 14]: 70 | Plant response rating, Corn (corn (Zea mays); [11]): 10 | Corn plant response rating (corn (Zea mays); Postemergence, 500 g ai/ha): 60 | Plant response rating, Corn (corn (Zea mays); [13]): 0 | Plant response rating, Corn (corn (Zea mays); [14]): 0 | Plant response rating, Morningglory [6, 11]: 100 | Morningglory plant response rating [6, 12]: 100 | Plant response rating, Morningglory [6, 13]: 0 | Plant response rating, Morningglory [6, 14]: 40 | Plant response rating, Pigweed [7, 11]: 70 | Pigweed plant response rating [7, 12]: 90 | Plant response rating, Pigweed [7, 13]: 0 | Plant response rating, Pigweed [7, 14]: 90 | Plant response rating, Flood, Ducksalad [8]: 85 | Plant response rating, Ducksalad [8, 15]: 85 | Plant response rating, Flood, Barnyardgrass [9]: 50 | Plant response rating, Barnyardgrass [9, 15]: 30 | Plant response rating, Flood, Sedge, Umbrella [10]: 80 | Plant response rating, Sedge, Umbrella [10, 15]: 80 | Plant response rating, Flood, Rice (rice (Oryza sativa)): 0 | Plant response rating, Rice (rice (Oryza sativa); [15]): 0

Cc1c(F)cccc1-n1c(-c2ccccc2)ncc(C(=O)C2=C(O)C3CCC(C3)C2=O)c1=O (stereo not drawn) [Compound 234]
Plant response rating, Wheat [1, 11]: 0 | Wheat plant response rating [1, 12]: 20 | Plant response rating, Wheat [1, 13]: 0 | Plant response rating, Wheat [1, 14]: 20 | Plant response rating, Crabgrass, Large [2, 11]: 40 | Crabgrass, Large plant response rating ([2]; Postemergence, 500 g ai/ha): 90 | Plant response rating, Crabgrass, Large [2, 13]: 60 | Plant response rating, Crabgrass, Large [2, 14]: 90 | Plant response rating, Barnyardgrass [3, 11]: 80 | Barnyardgrass plant response rating ([3]; Postemergence, 500 g ai/ha): 100 | Plant response rating, Barnyardgrass [3, 13]: 0 | Plant response rating, Barnyardgrass [3, 14]: 80 | Plant response rating, Velvetleaf [4, 11]: 100 | Velvetleaf plant response rating [4, 12]: 100 | Plant response rating, Velvetleaf [4, 13]: 30 | Plant response rating, Velvetleaf [4, 14]: 90 | Plant response rating, Foxtail, Giant [5, 11]: 70 | Foxtail, Giant plant response rating [5, 12]: 90 | Plant response rating, Foxtail, Giant [5, 13]: 10 | Plant response rating, Foxtail, Giant [5, 14]: 60 | Plant response rating, Corn (corn (Zea mays); [11]): 20 | Corn plant response rating (corn (Zea mays); Postemergence, 500 g ai/ha): 50 | Plant response rating, Corn (corn (Zea mays); [13]): 0 | Plant response rating, Corn (corn (Zea mays); [14]): 20 | Plant response rating, Morningglory [6, 11]: 100 | Morningglory plant response rating [6, 12]: 100 | Plant response rating, Morningglory [6, 14]: 10 | Plant response rating, Pigweed [7, 11]: 70 | Pigweed plant response rating [7, 12]: 90 | Plant response rating, Pigweed [7, 13]: 50 | Plant response rating, Pigweed [7, 14]: 60 | Plant response rating, Flood, Ducksalad [8]: 70 | Plant response rating, Ducksalad [8, 15]: 20 | Plant response rating, Flood, Barnyardgrass [9]: 0 | Plant response rating, Barnyardgrass [9, 15]: 0 | Plant response rating, Flood, Sedge, Umbrella [10]: 40 | Plant response rating, Sedge, Umbrella [10, 15]: 0 | Plant response rating, Flood, Rice (rice (Oryza sativa)): 0 | Plant response rating, Rice (rice (Oryza sativa); [15]): 0

O=C(C1=C(O)C2CCC(C2)C1=O)c1cnc(-c2cc(F)cc(F)c2)n(-c2ccccc2)c1=O (stereo not drawn) [Compound 246]
Plant response rating, Wheat [1, 17]: 0 | Wheat plant response rating [1, 12]: 50 | Plant response rating, Wheat [1, 18]: 0 | Plant response rating, Wheat [1, 14]: 50 | Plant response rating, Crabgrass, Large [2, 11]: 70 | Crabgrass, Large plant response rating ([2]; Postemergence, 500 g ai/ha): 100 | Plant response rating, Crabgrass, Large [2, 18]: 100 | Plant response rating, Crabgrass, Large [2, 14]: 100 | Plant response rating, Barnyardgrass [3, 11]: 70 | Barnyardgrass plant response rating ([3]; Postemergence, 500 g ai/ha): 100 | Plant response rating, Barnyardgrass [3, 18]: 10 | Plant response rating, Barnyardgrass [3, 14]: 100 | Plant response rating, Velvetleaf [4, 17]: 100 | Velvetleaf plant response rating [4, 12]: 100 | Plant response rating, Velvetleaf [4, 18]: 90 | Plant response rating, Velvetleaf [4, 14]: 100 | Plant response rating, Foxtail, Giant [5, 17]: 80 | Foxtail, Giant plant response rating [5, 12]: 100 | Plant response rating, Foxtail, Giant [5, 18]: 90 | Plant response rating, Foxtail, Giant [5, 14]: 90 | Plant response rating, Corn (corn (Zea mays); [11]): 0 | Corn plant response rating (corn (Zea mays); Postemergence, 500 g ai/ha): 90 | Plant response rating, Corn (corn (Zea mays); [18]): 0 | Plant response rating, Corn (corn (Zea mays); [14]): 50 | Plant response rating, Morningglory [6, 17]: 90 | Morningglory plant response rating [6, 12]: 100 | Plant response rating, Morningglory [6, 18]: 20 | Plant response rating, Morningglory [6, 14]: 60 | Plant response rating, Pigweed [7, 17]: 90 | Pigweed plant response rating [7, 12]: 100 | Plant response rating, Pigweed [7, 18]: 100 | Plant response rating, Pigweed [7, 14]: 100 | Plant response rating, Flood, Ducksalad [8]: 100 | Plant response rating, Ducksalad [8, 15]: 100 | Plant response rating, Ducksalad [8, 16]: 100 | Ducksalad plant response rating [8]: 85 | Plant response rating, Flood, Barnyardgrass [9]: 60 | Plant response rating, Barnyardgrass [9, 15]: 0 | Plant response rating, Barnyardgrass [9, 16]: 20 | Barnyardgrass plant response rating [9]: 0 | Plant response rating, Flood, Sedge, Umbrella [10]: 100 | Plant response rating, Sedge, Umbrella [10, 15]: 85 | Plant response rating, Sedge, Umbrella [10, 16]: 100 | Sedge, Umbrella plant response rating [10]: 0 | Plant response rating, Flood, Rice (rice (Oryza sativa)): 65 | Plant response rating, Rice (rice (Oryza sativa); [15]): 30 | Plant response rating, Rice (rice (Oryza sativa); [16]): 65 | Rice plant response rating (rice (Oryza sativa)): 0
